“And” between values parts separate entries of the source, which are not always exact repeats. Identical values can stand only once.
Tests used:
Format in all cases: functional, Homo sapiens
Set-up in all cases: dose or concentration left out as unconfirmed
Colon cancer organoid [1] = assay: Identification of compartment-specific drug sensitivities in O20 CRC organoid-stroma F20 CAF co-cultures. Organoid is transduced with Lucferase2-P2A-EGFP lentivirus, fibroblast with Renilla-dsRed lentivirus. Dual-Glo Luciferase assay is used to report viability data.
Colon cancer organoid [2] = assay: Identification of compartment-specific drug sensitivities in O06 CRC organoid-stroma F06 CAF co-cultures. Organoid is transduced with Lucferase2-P2A-EGFP lentivirus, fibroblast with Renilla-dsRed lentivirus. Dual-Glo Luciferase assay is used to report viability data.
Colon cancer organoid [3] = assay: Identification of compartment-specific drug sensitivities in O14 CRC organoid-stroma F14 CAF co-cultures. Organoid is transduced with Lucferase2-P2A-EGFP lentivirus, fibroblast with Renilla-dsRed lentivirus. Dual-Glo Luciferase assay is used to report viability data.
[4] = Transduced with Lucferase2-P2A-EGFP lentivirus
[5] = Transduced with Renilla-dsRed lentivirus

Compound | Cell Viability (Colon cancer organoid [1]; [4]) | Cell Viability (Colon cancer organoid [1]; [5]) | Cell Viability (Colon cancer organoid [2]; [4]) | Cell Viability (Colon cancer organoid [2]; [5]) | Cell Viability (Colon cancer organoid [3]; [4]) | Cell Viability (Colon cancer organoid [3]; [5])
O=C(NCCCN1CCOC1=O)c1cnc(NCc2cc(Br)ccc2Br)nc1NC1CCCC1 | 103.947% | 94.0994% | 72.4903% | 99.9468% | 120.927% | 72.8786%
CCS(=O)(=O)c1cc2cc(C[C@](O)(CC(C)(C)c3ccc(F)cc3C(N)=O)C(F)(F)F)[nH]c2cn1 [BI 653048] | 85.6205% | 287.465% | 70.4743% | 199.02% | 130.109% | 193.347%
O=C(CCCCCCNC(=O)c1cnc(N(c2ccccc2)c2ccccc2)nc1)NO [RICOLINOSTAT] | 159.49% | 130.22% | 80.064% | 143.43% | 136.319% | 100.142%
COc1ccccc1-c1cc(Nc2cccc(CS(N)(=O)=O)c2)ncn1 | 105.142% | 97.4583% | 105.6% | 95.8866% | 188.969% | 77.1823%
COc1cc(Nc2ncc3c(n2)-c2ccc(Cl)cc2C(c2c(F)cccc2OC)=NC3)ccc1C(=O)O [ALISERTIB] | 6.089% | 322.747% | 7.435% | 169.322% | 16.3683% | 117.657%
CN(C)C(=O)c1cc2cnc(Nc3ccc(N4CCNCC4)cn3)nc2n1C1CCCC1 [RIBOCICLIB] | 36.7036% | 144.514% | 54.2961% | 126.231% | 43.0147% | 103.263%
CCN(CC)S(=O)(=O)Nc1cccc(-c2ccc3c(NC(=O)C4CC4)n[nH]c3c2)c1 | 76.1767% | 136.148% | 76.8554% | 107.031% | 139.261% | 96.9304%
CCNC(=O)c1cc2c(N3CCOC[C@@H]3C)ccnc2n1C | 107.341% | 102.95% | 84.5961% | 69.3706% | 116.155% | 112.32%
Cc1cc(CN)cc(C)c1-c1ncn(C)c1-c1cncn1C | 127.793% | 117.48% | 121.461% | 141.638% | 88.8994% | 94.9152%
CC(C)Oc1ccc(-c2c[nH]cc2CN(C)CCN)cc1 | 47.8011% | 252.195% | 47.5822% | 178.793% | 53.8658% | 109.482%
C[C@H](NC(=O)c1cnc2n1[C@](C)(Cc1ccc(C#N)cc1)C(=O)N2c1cc(Cl)c(F)c(Cl)c1)C(=O)NC1(c2ccccn2)CC1 [BI 1950] | 121.807% | 97.0159% | 112.036% | 408.477% | 98.1816% | 100.374%
CC(=O)N1CCC(c2ccc(C(=O)NC3=NCCN3)cc2C(F)(F)F)CC1 [BI 0054] | 121.714% | 122.015% | 124.071% | 95.7607% | 111.388% | 98.4803%
CCCS(=O)(=O)c1nc(NC2CC2)cc(-c2ccc3c(ccn3C3CC(C)(C)NC(C)(C)C3)c2)n1 | 91.7549% and 133.424% | 94.2313% and 119.463% | 80.022% and 93.4216% | 88.9327% and 142.491% | 124.727% and 116.36% | 92.6394% and 115.077%
COc1c(C)cc(NC(=O)c2nn(Cc3ccc(F)cc3)c3c2CN(C(=O)c2ccc[nH]2)C[C@]3(C)C(N)=O)cc1C | 107.405% | 95.1299% | 66.5012% | 112.674% | 104.772% | 92.7757%
C=CC(=O)Nc1ccc2[nH]c(=O)n(C3CCN(Cc4ccc(-c5ccc6c(c5)NC(=O)CO6)cc4)CC3)c2c1 [RL2578] | 101.642% | 98.7435% | 88.4189% | 104.707% | 83.2796% | 87.8699%
Clc1cccc(-c2nnnn2Cc2cccnc2)c1Cl | 106.259% | 101.74% | 149.518% | 281.873% | 96.2273% | 101.208%
COCc1nc2cnc3cc(-c4c(C)noc4C)c(OC[C@H]4CCNC4)cc3c2n1[C@H](C)c1ccccc1 [GSK778] | 27.6505% | 143.906% | 81.063% | 183.714% | 41.3417% | 133.991%
COc1ccccc1C(=O)Nc1cc2c(cc1N1CCNCC1C)n(C)c(=O)n2C (stereo not drawn) | 131.273% | 107.173% | 112.155% | 138.916% | 118.564% | 101.199%
CCOc1cn(-c2ccc(F)cc2C)nc1C(=O)Nc1ccc(Oc2ccnc3cc(OC)c(OC)cc23)c(F)c1 | 229.393% and 192.525% | 78.4446% and 96.4847% | 87.51% and 89.4828% | 84.5689% and 64.7371% | 83.4563% and 72.9507% | 89.3323% and 81.5085%
Nc1nc(NCc2ccccc2)nc(-c2cccc(CO)c2)n1 [ZINC32547799] | 125.25% | 66.6285% | 97.3324% | 116.001% | 98.7801% | 87.8082%
CNC(=O)Nc1ccc(-c2nc(N3CC4CCC(C3)O4)c3cnn(C4CCC5(CC4)OCCO5)c3n2)cc1 | 5.83% | 97.6391% | 4.885% | 48.532% | 29.4838% | 39.9364%
COc1cc(Nc2nc(C)cc(-c3cnn4nc(OC)ccc34)n2)cc(C(F)(F)F)c1 | 136.021% | 99.6244% | 17.5131% | 98.9895% | 120.94% | 74.993%
CC(=O)Nc1c(F)cc(C(=O)N[C@H]2CC[C@H](O)CC2)cc1O[C@@H](C)c1ccccc1 [GSK046] | 118.485% | 118.66% | 141.493% | 157.689% | 96.2623% | 124.481%

Reference: ChEMBL document CHEMBL5608141, “Identification of compartment-specific drug sensitivities in CRC organoid-stroma co-cultures” (2024)
